The results in this text go back to ChEMBL document CHEMBL3045961, “Synthesis and evaluation of some pyrimidine analogs against toxoplasmosis” (Med Chem Res, 2008).

The source made the active and inactive calls. No cut-off for these calls is given here.

As usually defined, the IC50 is the point on the concentration scale where inhibition reaches its midpoint.

The subject of assay [1] is Toxoplasma gondii. The experiment in a line: Antiparasitic activity Toxoplasma gondii RH infected Swiss albino mouse assessed as epethelioid granuloma in host spleen at 0.25 mg, po administered 48 hr post-infection measured after 3 days by haematoxylin and eosin staining relative to control. It counts as functional, organism-based.
Assay [2] deals with Toxoplasma gondii. Briefly: Antiparasitic activity against Toxoplasma gondii RH infected Swiss albino mouse assessed as decrease in tachozyte count in liver at 0.25 mg, po administered 48 hr post-infection measured after 3 days by Geimsa staining relative to control. It counts as functional, organism-based.
In assay [3] the target is T1, Bifunctional dihydrofolate reductase-thymidylate synthase (Cryptosporidium parvum, UniProt Q27552).
T1 sequence (Q27552 whole entry): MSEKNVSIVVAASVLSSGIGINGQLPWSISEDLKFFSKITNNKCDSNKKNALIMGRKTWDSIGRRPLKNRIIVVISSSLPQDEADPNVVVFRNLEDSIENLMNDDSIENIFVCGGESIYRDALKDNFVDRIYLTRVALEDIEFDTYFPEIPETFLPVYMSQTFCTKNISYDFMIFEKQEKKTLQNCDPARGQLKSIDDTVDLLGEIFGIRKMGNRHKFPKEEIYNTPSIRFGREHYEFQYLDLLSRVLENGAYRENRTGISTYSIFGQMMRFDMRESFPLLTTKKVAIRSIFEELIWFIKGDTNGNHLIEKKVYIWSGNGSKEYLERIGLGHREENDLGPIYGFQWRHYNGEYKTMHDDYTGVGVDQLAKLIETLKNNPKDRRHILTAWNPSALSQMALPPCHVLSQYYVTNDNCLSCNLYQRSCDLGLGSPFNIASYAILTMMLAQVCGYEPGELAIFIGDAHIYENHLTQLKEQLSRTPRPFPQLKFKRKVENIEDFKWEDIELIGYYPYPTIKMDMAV
Briefly: Inhibition of Cryptosporidium parvum recombinant DHFR using dihydrofolate as substrate incubated for 5 min prior to substrate addition by spectrophotometric assay.

Assay [4] relates to Toxoplasma gondii. Briefly: Antiparasitic activity Toxoplasma gondii RH infected Swiss albino mouse assessed as clear mononuclear cells in host liver focal granuloma at 0.25 mg, po administered 48 hr post-infection measured after 3 days by haematoxylin and eosin staining relative to control. The class given is functional, organism-based.
Assay [5] concerns Toxoplasma gondii. Briefly: Antiparasitic activity Toxoplasma gondii RH infected Swiss albino mouse assessed as clear lymphocytes in host liver focal granuloma at 0.25 mg, po administered 48 hr post-infection measured after 3 days by haematoxylin and eosin staining relative to control. The class given is functional, organism-based.
For assay [6], the system named is Toxoplasma gondii. Briefly: Antiparasitic activity Toxoplasma gondii RH infected Swiss albino mouse assessed as megakaryocytes in host spleen at 0.25 mg, po administered 48 hr post-infection measured after 3 days by haematoxylin and eosin staining relative to control. The class given is functional, organism-based.
For assay [7], the system named is Toxoplasma gondii. The experiment in a line: Antiparasitic activity Toxoplasma gondii RH infected Swiss albino mouse assessed as parasite deformity in host peritoneal exudate at 0.25 mg, po administered 48 hr post-infection measured after 3 days by light microscopic analysis. It counts as functional, organism-based.
The subject of assay [8] is Toxoplasma gondii. The experiment in a line: Antiparasitic activity Toxoplasma gondii RH infected Swiss albino mouse assessed as decreased parasite movement in host peritoneal exudate at 0.25 mg, po administered 48 hr post-infection measured after 3 days by light microscopic analysis. It counts as functional, organism-based.
Assay [9] concerns Toxoplasma gondii. Briefly: Antiparasitic activity Toxoplasma gondii RH infected Swiss albino mouse assessed as decrease in Toxoplasma antigen in host serum at 0.25 mg, po administered 48 hr post-infection measured after 3 days by Co-A test relative to control. The class given is functional, organism-based.
The test system of assay [10] is Toxoplasma gondii. Briefly: Antiparasitic activity Toxoplasma gondii RH infected Swiss albino mouse assessed as decrease in host liver necrosis at 0.25 mg, po administered 48 hr post-infection measured after 3 days by haematoxylin and eosin staining relative to control. It counts as functional, organism-based.
Assay [11] deals with Toxoplasma gondii. The experiment in a line: Antiparasitic activity Toxoplasma gondii RH infected Swiss albino mouse assessed as decrease in host spleen necrosis at 0.25 mg, po administered 48 hr post-infection measured after 3 days by haematoxylin and eosin staining relative to control. The class given is functional, organism-based.
Assay [12] relates to Toxoplasma gondii. The experiment in a line: Antiparasitic activity Toxoplasma gondii RH infected Swiss albino mouse assessed as decrease in host spleen white pulp at 0.25 mg, po administered 48 hr post-infection measured after 3 days by haematoxylin and eosin staining relative to control. The class given is functional, organism-based.
A further assay deals with T2, Dihydrofolate reductase (Homo sapiens, UniProt P00374).
T2 sequence (P00374 whole entry): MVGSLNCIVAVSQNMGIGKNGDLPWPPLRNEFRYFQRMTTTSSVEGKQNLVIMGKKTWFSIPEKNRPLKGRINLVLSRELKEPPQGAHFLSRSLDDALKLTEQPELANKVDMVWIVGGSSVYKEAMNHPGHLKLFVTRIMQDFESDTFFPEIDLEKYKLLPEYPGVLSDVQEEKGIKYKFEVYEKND
The experiment in a line: Inhibition of Homo sapiens (human) dihydrofolate reductase using dihydrofolate as substrate incubated for 5 min prior to substrate addition by spectrophotometric assay.

The subject of assay [13] is Toxoplasma gondii. The experiment in a line: Antiparasitic activity Toxoplasma gondii RH infected Swiss albino mouse assessed as decrease in interstitial pneumonia at 0.25 mg, po administered 48 hr post-infection measured after 3 days by haematoxylin and eosin staining relative to control. It counts as functional, organism-based.
Assay [14] has as its system Toxoplasma gondii. Briefly: Antiparasitic activity against Toxoplasma gondii RH infected Swiss albino mouse assessed as decrease in tachozyte count in spleen at 0.25 mg, po administered 48 hr post-infection measured after 3 days by Geimsa staining relative to control. It counts as functional, organism-based.
The subject of assay [15] is Toxoplasma gondii. The experiment in a line: Antiparasitic activity Toxoplasma gondii RH infected Swiss albino mouse assessed as decrease in host lung congestion at 0.25 mg, po administered 48 hr post-infection measured after 3 days by haematoxylin and eosin staining relative to control. It counts as functional, organism-based.
Assay [16] deals with Toxoplasma gondii. Briefly: Antiparasitic activity Toxoplasma gondii RH infected Swiss albino mouse assessed as increase in host spleen red pulp at 0.25 mg, po administered 48 hr post-infection measured after 3 days by haematoxylin and eosin staining relative to control. The class given is functional, organism-based.
Assay [17] relates to Toxoplasma gondii. The experiment in a line: Antiparasitic activity Toxoplasma gondii RH infected Swiss albino mouse assessed as extramedullary hematopoiesis in host spleen at 0.25 mg, po administered 48 hr post-infection measured after 3 days by haematoxylin and eosin staining relative to control. It counts as functional, organism-based.

Turning to `CC(=O)C1=C(C)NC(=S)NC1c1cccc(O)c1` (configuration not stated), the outcome in the assay with Toxoplasma gondii [1], with Toxoplasma gondii [2], in the assay on Toxoplasma gondii [4], in the assay with Toxoplasma gondii [5], in the assay with Toxoplasma gondii [6] and in the assay on Toxoplasma gondii [7] was inactive. The result in the assay with Toxoplasma gondii [8], with Toxoplasma gondii [9], in the assay with Toxoplasma gondii [10], in the assay on Toxoplasma gondii [11], in the assay with Toxoplasma gondii [12] and with Toxoplasma gondii [13] was inactive. For the same compound, the result in the assay with Toxoplasma gondii [14], in the assay with Toxoplasma gondii [15], in the assay with Toxoplasma gondii [16] and in the assay on Toxoplasma gondii [17] was inactive. Moreover, the IC50 in assay [3] stood at 7.6 µM; against Dihydrofolate reductase it was 9.4 µM.
Regarding `CCOC(=O)C1=C(C)NC(=S)NC1/C=C\c1ccccc1` (configuration not stated), the result in the assay on Toxoplasma gondii [1], in the assay on Toxoplasma gondii [2], with Toxoplasma gondii [4], in the assay with Toxoplasma gondii [5], in the assay on Toxoplasma gondii [6] and in the assay on Toxoplasma gondii [7] was inactive. Further, the result in the assay with Toxoplasma gondii [8], in the assay on Toxoplasma gondii [9], in the assay with Toxoplasma gondii [10], with Toxoplasma gondii [11], with Toxoplasma gondii [12] and in the assay with Toxoplasma gondii [13] was inactive. Moreover, the result in the assay on Toxoplasma gondii [14], with Toxoplasma gondii [15], with Toxoplasma gondii [16] and in the assay with Toxoplasma gondii [17] was inactive. The IC50 in assay [3] amounted to 2.1 µM; on Dihydrofolate reductase it was 2.9 µM.
In the case of `COc1cc(Cc2cnc(N)nc2N)cc(OC)c1OC` [TRIMETHOPRIM], the IC50 in [3] is 4 µM.
On to `CCOC(=O)CSC1=NC(c2ccccc2)C(C(=O)OCC)=C(C)N1` (configuration not stated), for which the outcome in the assay with Toxoplasma gondii [1], with Toxoplasma gondii [2], with Toxoplasma gondii [4], in the assay with Toxoplasma gondii [5], in the assay with Toxoplasma gondii [6] and in the assay with Toxoplasma gondii [7] was inactive. The outcome in the assay on Toxoplasma gondii [8], with Toxoplasma gondii [9], in the assay on Toxoplasma gondii [10], with Toxoplasma gondii [11], in the assay with Toxoplasma gondii [12] and in the assay on Toxoplasma gondii [13] was inactive. In addition, the result with Toxoplasma gondii [14], in the assay on Toxoplasma gondii [15], in the assay with Toxoplasma gondii [16] and in the assay on Toxoplasma gondii [17] was inactive. The IC50 in [3] was 3.2 µM; at Dihydrofolate reductase, 0.83 µM.
In the case of `CCOC(=O)C1=C(C)NC(=S)NC1c1ccccc1` (configuration not stated), the result in the assay with Toxoplasma gondii [1], with Toxoplasma gondii [2], in the assay with Toxoplasma gondii [4], with Toxoplasma gondii [5], in the assay on Toxoplasma gondii [6] and in the assay on Toxoplasma gondii [7] was inactive. The outcome in the assay with Toxoplasma gondii [8], in the assay on Toxoplasma gondii [9], in the assay with Toxoplasma gondii [10], in the assay with Toxoplasma gondii [11], in the assay on Toxoplasma gondii [12] and with Toxoplasma gondii [13] was inactive. The result in the assay on Toxoplasma gondii [14], with Toxoplasma gondii [15], in the assay with Toxoplasma gondii [16] and in the assay on Toxoplasma gondii [17] was inactive. The IC50 was 4.7 µM in assay [3] and 0.58 µM on Dihydrofolate reductase.
Regarding `CCOC(=O)C1=C(C)NC(=S)NC1c1ccccc1OC` (configuration not stated), the result in the assay on Toxoplasma gondii [1], in the assay on Toxoplasma gondii [2], in the assay on Toxoplasma gondii [4], in the assay on Toxoplasma gondii [5], in the assay with Toxoplasma gondii [6] and in the assay on Toxoplasma gondii [7] was inactive. The outcome in the assay on Toxoplasma gondii [8], with Toxoplasma gondii [9], in the assay with Toxoplasma gondii [10], with Toxoplasma gondii [11], with Toxoplasma gondii [12] and with Toxoplasma gondii [13] was inactive. Moreover, the result with Toxoplasma gondii [14], in the assay on Toxoplasma gondii [15], in the assay with Toxoplasma gondii [16] and in the assay on Toxoplasma gondii [17] was inactive. The IC50 in [3] is 2.4 µM; at Dihydrofolate reductase it was 1.9 µM.
For `CCOC(=O)CSC1=NC(c2ccccc2OC)C(C(=O)OCC)=C(C)N1` (configuration not stated), the result in the assay on Toxoplasma gondii [1], in the assay with Toxoplasma gondii [2], with Toxoplasma gondii [4], in the assay with Toxoplasma gondii [5], in the assay with Toxoplasma gondii [6] and in the assay on Toxoplasma gondii [7] was inactive. Further, the result in the assay on Toxoplasma gondii [8], with Toxoplasma gondii [9], with Toxoplasma gondii [10], in the assay on Toxoplasma gondii [11], with Toxoplasma gondii [12] and in the assay with Toxoplasma gondii [13] was inactive. In addition, the outcome in the assay with Toxoplasma gondii [14], in the assay with Toxoplasma gondii [15], with Toxoplasma gondii [16] and in the assay with Toxoplasma gondii [17] was inactive. The figures for the IC50 (in assay [3]; against Dihydrofolate reductase) were 5.1 µM and 7.3 µM, respectively.
Turning to `CCOC(=O)C1=C(C)N=C(SCC(=O)c2ccc(Cl)c([N+](=O)[O-])c2)NC1c1ccccc1` (configuration not stated), the outcome in the assay with Toxoplasma gondii [1], with Toxoplasma gondii [2], in the assay with Toxoplasma gondii [4], with Toxoplasma gondii [5], with Toxoplasma gondii [6] and with Toxoplasma gondii [7] was inactive. Moreover, the outcome in the assay on Toxoplasma gondii [8], in the assay with Toxoplasma gondii [9], in the assay on Toxoplasma gondii [10], with Toxoplasma gondii [11], in the assay with Toxoplasma gondii [12] and in the assay with Toxoplasma gondii [13] was inactive. The result with Toxoplasma gondii [14], with Toxoplasma gondii [15], in the assay on Toxoplasma gondii [16] and in the assay with Toxoplasma gondii [17] was inactive. Further, the IC50 in assay [3] was 2.3 µM; against Dihydrofolate reductase, 3 µM.
